Laboratory results reported in patent US20030224467A1, “AIB1 as a prognostic marker and predictor of resistance to endocrine therapy” (priority 2002, published 2003).
“Also recorded” adds a separate entry of the source.

What was measured:
[1] = test system: HER-2/neu and MAPK in BT474 cells; assay: Phosphorylation analysis by western immunoblotting; conditions: 20 minute treatment
Procedure: (§2) Treated cells were then immediately harvested. Cells were first rinsed twice with cold PBS, and lysed in 1×cell lysis buffer (Cell Signaling Technology) supplemented with 10% Glycerol, 1 mM Pherryl Methylsulfonyl Fluoride (PMSF), 1×Complete Protease inhibitor mixture (Roche, Indianapolis, Ind.), 1 μM Okadaic acid, 10 μg/mL Microsystin as instruction from Cell Signaling Technology. Protein concentration was measured by Bio-Rad Protein Assay kit (Bio-Rad, Hercules, Calif.) according to manufacturer's instruction. 20 μg of protein extracts from individual treatments were electrophoresized on SDS-PAGE gel (Invitrogen), and electroblotted to nitrocellulose membrane (Millipore, Bedford, Mass.). Membranes were blocked with blocking buffer (5% w/v nonfat dry milk in 1×TBS with 0.1% Tween-20, TBST) for 1 hr and then incubated with primary antibody in 5% BSA TBST (for all phospho antibodies with gentle agitation overnight at 4° C., otherwise in blocking buffer for 2 hrs at room temperature). After washing and incubating with secondary horseradish peroxidase conjugated antibodies against mouse or rabbit IgG (Amershan, Arlington Heoghts, Ill. Immunoreactive proteins were detected by the ECL (Amershan). Quantitation was performed by using NIH Imagine Software.

[2] = test system: ER, EGF-R, HER-2/neu, MAPK and AKT in MCF-7/HER-218 cells; assay: Phosphorylation analysis by western immunoblotting; conditions: for Phosphorylation of EGF-R, HER-2/neu and MAPK / Phosphorylation of ER on serine 118: short-term (20 minutes)
Procedure: (§3) Treatments of cells with E2, 4HOT, EGF or HRG were conducted after cells were starved in phenol red-free, serum-free IMEM for 24 hr.
as §2

MCF-7/HER-218 tumors = assay: Athymic nude mouse model, MCF-7/HER-218 tumor growth; assay type: in vivo, mice; conditions: continued estrogen, or estrogen withdrawal plus tamoxifen, compared to estrogen withdrawal alone
Procedure: Ovariectomised female BALB/c-nu+/nu+ mice 4-5 weeks of age were purchased from Harlan Sprague-Dawley (Madison, Wis.). […] Estrogen pellets (0.25 mg, 21 day release) were purchased from Innovative Research (Rockville, Md.) and half a pellet placed subcutaneously in the interscapular area of each animal on the day prior to cell injection. MCF-7/HER-218 cells were grown in 150 cm^3 flasks and split 1:5 in DMEM (Invitrogen, Calif.) supplemented with 10% FBS. When flask cell confluence reached 90-100%, cells were harvested using a soft rubber scraper, then spun down at 1000 rpm for 3 minutes, and resuspended in the original media for injection. Cells were injected at 5×10^6−1×10^7 in 0.2 ml per animal in the right mammary fat pad. […] Each individual group had 8 animals (n=8). […] Tumors were subsequently measured weekly and recorded according to the formula: Tumor volume=width^2×length/2. Animal were weighed every 2 weeks and monitored for toxicity. Tumor growth curves were constructed using the mean of tumors' volume at each measurement point with the error bars representing the standard error of the mean. Student's t-test was used to compare data between two groups. Values are expressed as relative to tumor volume to size at the beginning of treatment as mean ±s.d.

[3] = test system: phosphorylated MAPK, AIB1; assay: Immunoblot of MCF-7/HER-218 tumors from treated mice
Procedure: Treated cells were then immediately harvested. Cells were first rinsed twice with cold PBS, and lysed in 1×cell lysis buffer (Cell Signaling Technology) supplemented with 10% Glycerol, 1 mM Pherryl Methylsulfonyl Fluoride (PMSF), 1×Complete Protease inhibitor mixture (Roche, Indianapolis, Ind.), 1 μM Okadaic acid, 10 μg/mL Microsystin as instruction from Cell Signaling Technology. […] 20 μg of protein extracts from individual treatments were electrophoresized on SDS-PAGE gel (Invitrogen), and electroblotted to nitrocellulose membrane (Millipore, Bedford, Mass.). Membranes were blocked with blocking buffer (5% w/v nonfat dry milk in 1×TBS with 0.1% Tween-20, TBST) for 1 hr and then incubated with primary antibody in 5% BSA TBST (for all phospho antibodies with gentle agitation overnight at 4° C., otherwise in blocking buffer for 2 hrs at room temperature). After washing and incubating with secondary horseradish peroxidase conjugated antibodies against mouse or rabbit IgG (Amershan, Arlington Heoghts, Ill. Immunoreactive proteins were detected by the ECL (Amershan). Quantitation was performed by using NIH Imagine Software.

[4] = test system: estrogen responsive genes in wild-type MCF-7 cells; assay: Endogenous estrogen responsive gene induction (immunoblot); conditions: 12 hr induction
Source text: (§4) The cellharvest, cell extraction preparation and immunobloting were as above.

[5] = test system: pS2 promoter in MCF-7/HER-218 cells; assay: Chromatin immunoprecipitation on the pS2 promoter; conditions: 20 minute incubation
Procedure: (§5) Wild type MCF7 and HER-2-18 cells were grown to 90% confluence in phenol red-free IMEM supplemented with 10% CDS FBS for 7 days, the cells were starved completely with phenol red-free IMEM (without serum) for overnight. […] Cells were pelleted and lysis in 1 ML SDS lysis buffer and incubated on ice for 10 min. Lysate was sonicated by three times for 10 sec. at maximum setting followed by centrifugation for 10 min at 4 C. 200 ul of supernatant was, subjected to each immunoprecipitation with specific antibody, diluted with ChIP dilution buffer 10 fold and pre-cleared with 80 ul of SS-DNA/Protein A/G agarose plus 20 ul of normal mouse or rabbit IgG (Santa Cruz) depending on primary antibody used afterward for 4 hrs at 4 C. The beads were collected and saved as normal IgG control. The pre-cleared supernatant was immunoprecipitated with antibodies against ER, or AIB1, or NcoR, or Act-H3, respectively at 4° C. for overnight, followed by SS-DNA/Protein A/G at 4 C. for 1 hr. Pellet agarose by gentle centrifugation (1000 rpm, 1 min, 4° C.). The pellets were intensively washed sequentially as follows in 1 ml volume: low salt wash buffer X 1 time, high salt wash buffer X 1 time, LiCl salt wash buffer X 1 time, TE X 2 times. […]

[6] = test system: AIB1 in MCF-7/HER-218 cells; assay: Western blot mobility shift of AIB1; assay type: cell-based, human
Procedure: (§1) In PPase treatment group, cell extracts were incubated with PPase prior to analysis as previously described. Antibody against AIB1 was used.

[7] = test system: ER, EGF-R, HER-2/neu, MAPK and AKT in parental MCF-7 cells; assay: Phosphorylation analysis by western immunoblotting; conditions: for Phosphorylation of EGF-R and HER-2/neu / Phosphorylation of ER on serine 118 / Phosphorylation of MAPK and AKT: short-term (20 minutes)
Procedure: as §3, §2

primary breast cancer = assay: Five-year disease-free survival of node-positive breast cancer patients on tamoxifen adjuvant therapy, by AIB1 and HER-2 status; assay type: in vivo, human
Procedure: Frozen tumor specimens from 316 patients, all of whom had positive axillary lymph nodes at the time of initial surgery, were selected for study. Such patients have higher recurrence rates after primary treatment, resulting in more events for statistical power. […] The median follow-up for patients still living is 95 months. Proteins from 30 mg of tissue were extracted in 300 μl 5% SDS at 90° C. for 5 minutes. Protein concentration was determined using the BCA method (Pierce, Rockford, Ill.); typical yields were 2-5 μg/μl. Samples were stored at −70° C. until use.
Assays were performed and results quantified by an investigator blinded to clinical information. 20 μg of extracted protein in sample buffer (0.05 M tris, pH 6.8, containing 2% SDS, 2.5% β-mercaptoethanol, 10% glycerol, and 0.1% bromphenol blue as tracking dye) were placed in boiling water for 2 minutes, cooled to room temperature, and centrifuged for 1 minute. An MCF-7 reference standard (5 μg protein per lane) was included on each gel as a normalization control. Proteins were electrophoresed on 8% Tricine-Glycine polyacrylamide gels (Invitrogen, Carlsbad, Calif.) and then transferred onto nitrocellulose. Blots were rinsed 5 minutes with TBS (TRIS-buffered saline: 100 mM TRIS, pH 7.5, and 0.9% NaCl) containing 0.1% Tween-20 (TBST). After blocking with 5% nonfat dry milk in TBST, the blots were incubated overnight at 4° C. in the primary antibody (1:1000 rabbit anti-RAC3 antiserum). This antibody was raised in rabbits against a MBP fusion protein containing amino acid residues 582-842 of human RAC3 (AIB1).
The blots were washed 3 times in TBST, followed by incubation for 1 hour in 5% nonfat dry milk in TBST and 1:5000 horseradish peroxidase labeled anti-rabbit Ig (Amersham, Piscataway, N.J.). The blots were washed 5 times in TBST, after which the labeled protein was visualized on a FluorChem digital imaging system (Alpha Innotech, San Leandro, Calif.) using an enhanced chemiluminescence detection system. Band intensities were measured densitometrically using the AlphaEaseFC software (Alpha Innotech, San Leandro, Calif.). AIB1 levels in tumors were normalized to the AIB1 concentration in the MCF-7 positive control lysate (5 μg) from the same immunoblot.
ER and progesterone receptors (PR) were measured by ligand binding assays as described by Harvey et al., 1999. S-phase fraction was calculated by DNA flow cytometry and classified as low, intermediate, or high (Wenger et al, 1998). Immunohistochemistry was used to semiquantitatively measure p53 and bcl 2 expression, and HER-2 expression was determined by western blot analyses as described by Elledge et al., 1997, and Tandon et al., 1989.
Associations between AIB1, steroid receptors, HER-2 and other molecular markers, and clinical variables were assessed using Spearman rank correlation. The disease-free survival (DFS) was calculated from the date of diagnosis. First recurrence (local or distant) was scored as an event, and patients without recurrence were censored at the time of last follow-up or death, meaning that an event of interest (e.g., recurrence or death) has not yet occurred. For graphical presentation, follow-up was truncated at 120 months. Overall survival was calculated from the date of diagnosis, with death from any cause being scored as an event. Patients who were alive at the last follow-up were censored at the last follow-up date. Survival curves were derived from Kaplan-Meier estimates, which are well known in the art, and the curves were compared by log-rank tests. Initially, separate analyses were performed for treated and untreated patients. The influence of AIB1 adjusted for other prognostic factors was assessed in multivariate analysis by Cox proportional hazards models.

[8] = test system: estrogen responsive genes in MCF-7/HER-218 cells; assay: Endogenous estrogen responsive gene induction (immunoblot); conditions: for Protein expression of endogenous estrogen responsive genes: 12 hr induction
Source text: as §4

[9] = test system: pS2 promoter in MCF-7 cells; assay: Chromatin immunoprecipitation on the pS2 promoter; conditions: 20 minute incubation
Procedure: as §5

ER in MCF-7 cells = assay: ERE luciferase reporter, ER dependent transcription; assay type: cell-based, human
MCF-7/HER-218 cells = assay: S-phase fraction of cells; assay type: cell-based, human; conditions: agent alone
parental MCF-7 tumors = assay: Parental MCF-7 tumor growth; assay type: in vivo, mice; conditions: wild-type MCF-7, tamoxifen
MCF-7 cells = assay: S-phase fraction of cells; assay type: cell-based, human; conditions: agent alone
[10] = test system: ER in MCF-7/HER-218 cells; assay: ERE luciferase reporter, ER dependent transcription; assay type: cell-based, human
AIB1 in MCF-7 cells = assay: Western blot mobility shift of AIB1; assay type: cell-based, human; conditions: reversed by phosphatase treatment
Procedure: as §1

With `CC/C(=C(\c1ccccc1)c1ccc(OCCN(C)C)cc1)c1ccccc1` [tamoxifen] the “Phosphorylated HER-2/neu and MAPK” value [1] was “striking increase”, the MAPK phosphorylation ([2]; 48 hour treatment) was “striking effects” and the “Phosphorylation of ER” value ([2]; 48 hour treatment) was “still evident”. For the same compound, the “Phosphorylation of EGF-R, HER-2/neu and MAPK” value [2] was “phosphorylation was detected”, the “Phosphorylation of ER on serine 118” value [2] was “phosphorylated” and the Tumor growth (MCF-7/HER-218 tumors) was “increased tumor growth; also recorded: stimulated”. For the same compound, the “Total and phosphorylated AIB1 in tumors” value ([3]; MCF-7/HER-218 tumors of treated mice) was “induced; also recorded: both higher”, the “Tumor level of phosphorylated (active) MAPK” value ([3]; estrogen, or estrogen withdrawal plus tamoxifen, versus estrogen withdrawal alone) was “activate MAPK and high” and the “Protein expression of endogenous estrogen responsive genes” value [4] was “no agonist activity”. For the same compound, the “Occupancy of the pS2 promoter” value [5] was “induced occupancy of the pS2 promoter by ER and by AIB1”, the “AIB1 phosphorylation (mobility shift of AIB1 band)” value [6] was “phosphorylation of AIB1 was observed” and the MAPK phosphorylation ([7]; 48 hour treatment) was “no effect”. The “Phosphorylation of ER” value ([7]; 48 hour treatment) was “still evident”, the “Phosphorylation of EGF-R and HER-2/neu” value [7] was “could not detect phosphorylation” and the “Phosphorylation of ER on serine 118” value [7] was “phosphorylate”. The “Phosphorylation of MAPK and AKT” value [7] was “could not detect phosphorylation”, the “5 yr DFS” value (primary breast cancer; High HER-2 (grade 2-4), High AIB1 (top quartile)) was 42% and the “5 yr DFS” value (primary breast cancer; High HER-2 (grade 2-4), High AIB1 (top quartile), listed as Tamoxifen) was 42%. The “5 yr DFS” value (primary breast cancer; High HER-2 (grade 2-4), Low AIB1 (lower 3 quartiles)) was 77%, the “5 yr DFS” value (primary breast cancer; High HER-2 (grade 2-4), Low AIB1 (lower 3 quartiles), listed as Tamoxifen) was 77% and the “5 yr DFS” value (primary breast cancer; Low HER-2 (grade 0-1), High AIB1 (top quartile)) was 82%. For the same compound, the “5 yr DFS” value (primary breast cancer; Low HER-2 (grade 0-1), Low AIB1 (lower 3 quartiles)) was 64%, the “5-year DFS” value (primary breast cancer; other three groups combined (not high AIB1 and high HER-2)) was 70% and the “Protein expression of endogenous estrogen responsive genes” value [8] was “behaved as an estrogen agonist on all of the genes”. The “Occupancy of the pS2 promoter” value [9] was “induced occupancy of this promoter by ER but not by AIB1”, the ERE luciferase activity (ER in MCF-7 cells; agent alone) was “no agonist activity” and the “Fraction of cells in S-phase” value (MCF-7/HER-218 cells) was “stimulated the fraction of cells in S-phase”. The Tumor growth (parental MCF-7 tumors) was “inhibited”, the “Percent of cells in S-phase” value (MCF-7 cells) was “no agonist effect” and the “ERE luciferase activity above control” value ([10]; agent alone) was “inability”.

With “EGF: epidermal growth factor purchased from Invitrogen (NSDSECPLSHDGYCLHDGVCMYIEALDKYACNCVVGYIGERCQYRDLKWWELR; Epidermal growth factor; UniProt P01133 971-1023, looked up)” the “Phosphorylation of EGF-R, HER-2/neu and MAPK” value [2] was “phosphorylation was detected”, the “Phosphorylation of ER on serine 118” value [2] was “phosphorylated” and the “Phosphorylation of EGF-R and HER-2/neu” value [7] was “unable to detect phosphorylation”. The “Phosphorylation of ER on serine 118” value [7] was “phosphorylate” and the “Phosphorylation of MAPK and AKT” value [7] was “did phosphorylate MAPK and AKT”.

With heregulin the “Phosphorylation of EGF-R, HER-2/neu and MAPK” value [2] was “phosphorylation was detected”, the “Phosphorylation of ER on serine 118” value [2] was “phosphorylated” and the “Protein expression of endogenous estrogen responsive genes” value [4] was “induced the expression of all of the genes except for progesterone receptor”. The “AIB1 phosphorylation (mobility shift of AIB1 band)” value [6] was “phosphorylation of AIB1 was observed”, the “AIB1 phosphorylation (mobility shift of AIB1 band)” value (AIB1 in MCF-7 cells) was “upshifted the AIB1 band” and the “Phosphorylation of EGF-R and HER-2/neu” value [7] was “strongly phosphorylated”. For the same compound, the “Phosphorylation of ER on serine 118” value [7] was “phosphorylate”, the “Phosphorylation of MAPK and AKT” value [7] was “strongly phosphorylated” and the “Protein expression of endogenous estrogen responsive genes” value [8] was “dramatic effects on several of these genes”. The “Level of IRS1” value ([8]; heregulin) was “large increase”, the “Protein expression of progesterone receptor” value ([8]; heregulin) was “increased” and the ERE luciferase activity (ER in MCF-7 cells; heregulin added to estrogen) was “two fold”. For the same compound, the ERE luciferase activity (ER in MCF-7 cells; heregulin added to tamoxifen) was “increase luciferase activity a small amount”, the “Fraction of cells in S-phase” value (MCF-7/HER-218 cells) was “stimulated the fraction of cells in S-phase” and the “Percent of cells in S-phase” value (MCF-7 cells) was “markedly increased the S-phase fraction”. The “ERE luciferase activity in response to both estrogen and tamoxifen” value ([10]; heregulin added) was “remarkably enhanced luciferase activity” and the “Estrogen agonist properties of tamoxifen (luciferase)” value ([10]; heregulin added to tamoxifen) was “levels above estrogen alone”.
